A word on the IC50: it is the concentration that inhibits the measured activity by half. In general, Ki refers to a measure of affinity in units of concentration, obtained from inhibition or displacement. As a reminder, the Kd is the equilibrium constant for the complex coming apart.

This is an account of results in patent US5597922A, “Glycine receptor antagonist pharmacophore” (priority 1994, dated 1997).

Where two headings read alike, the source gives them in different places.

The conditions of data set [1]: in words; cited from earlier work.
The target in data set [2] is T1, glycine/NMDA receptor (Rattus norvegicus, UniProt P35439).
T1 construct: rat brain membrane homogenates which are enriched in NMDA receptors; tissue Pel-Freez, Rogers, Ark; (frozen rat brains); host or cells: rat brain membrane homogenates
The experiment in a line: inhibition of 1 μM glycine-stimulated [3H]-MK801 binding in rat brain membrane homogenates (glycine/NMDA receptor antagonist activity). The note with it: for potency relative to DCK (% of DCK): relative to 5,7-dichlorokynurenic acid (DCK); for activity as antagonist for the glycine/NMDA receptor (in words): in vitro binding assay; for Ki: calculated from IC50 by Cheng and Prusoff equation. The procedure:
This assay takes advantage of the fact that the binding of [^3 H]-MK801 to the PCP receptor inside the pore of the NMDA channel is dependent on the presence of both glutamate and glycine. In the absence of glycine but in the presence of glutamate, [^3 H]-MK801 cannot bind effectively to the PCP receptor, because the NMDA channel remains closed and access of [^3 H]-MK801 to the PCP receptor inside the closed channel pore is severely restricted.
The assay is conducted using rat brain membrane homogenates which are enriched in NMDA receptors. The membranes are prepared as follows. Frozen rat brains (obtained from Pel-Freez, Rogers, Ark.) are homogenized in 15 volumes (w/v) of ice cold 0.32M sucrose. The homogenate is spun at 1,000×g for ten minutes. The supernatant is collected and spun for 20 minutes at 44,000×g. The pellet is suspended in 15 volumes of water (relative to original brain weight). The homogenate is again spun at 44,000×g for twenty minutes. The pellet is resuspended in 5 volumes of water and the suspension is freeze-thawed 2 times. After the final thaw cycle, the suspension is brought to 15 volumes with water and spun at 44,000×g for twenty minutes. The pellet is resuspended in 5 volumes of ice-cold […] HEPES, and is titrated to pH 7.4 with KOH containing 0.04% Triton X-100. Membranes are incubated with the Triton/HEPES buffer at 37° C. for 15 minutes. The volume is then brought to 15 with ice-cold 10 mM HEPES, pH 7.4, and spun/washed three times with spins of 44,000×g between washes. The final pellet is suspended in three volumes of 50 mM HEPES, pH 7.4 and the protein concentration is determined with a standard dye-binding protein assay (Bio-Rad, Richmond, Calif.). The suspension is stored at -80° C. until used. Only HPLC grade water is used for all buffers and suspensions/washings. The extensive washings are necessary to remove as much endogenous glycine from the membrane preparation as possible.
Nonspecific binding is defined as the […] presence of PCP (final concentration: 100 μM). To determine the effect of 1 μM glycine on the binding of [^3 H]-MK801, bound radioactivity in the presence of 10 μM glutamate alone (final concentration) is subtracted from the bound radioactivity in the presence of both 10 μM glutamate and 1 μM glycine (final concentration). A 500 nM concentration (final) of 5,7-dichlorokynurenic (DCK) acid is added to all assay tubes. This concentration of the glycine antagonist DCK "buffers" most of the residual endogenous glycine that is not removed by the extensive washing steps that are carried out during the membrane preparation procedure.
The assays are incubated for 120 minutes at room temperature after which time the membrane-bound radioactivity is isolated from the free radioactivity by vacuum filtration through Whatman glass fiber filters that had been pretreated with 0.3% polyethyleneimine. Filtration is accomplished using a Brandel 48 well cell harvester. Filtered membranes are washed three times with 3 mL each of ice cold buffer. Filters are transferred to scintillation vials and 5 mL of scintillation cocktail is added. The vials are shaken overnight and the radioactivity is counted by liquid scintillation spectroscopy. The assays are done in triplicate and all experiments are conducted at least three times.

For data set [3], the system named is glycine binding site of the NMDA receptor. The note with it: Fletcher and Lodge (1988); cited from earlier work.
Data set [4] addresses PCP receptor. The following applies: Wong, E. H. F., et al. (1986); cited from earlier work.
The mark [5] stands for this setting: 1 μM glycine-stimulated [3H]-MK801 binding, rat brain membranes, unit μm [sic], read-out: IC50.
[6] abbreviates: 1 μM glycine-stimulated [3H]-MK801 binding, rat brain membranes, read-out: IC50.

As for `O=C(O)c1cc(O)c2ccc(Cl)cc2n1` [7-Cl-kynurenic acid], the blood/brain barrier penetration result in data set [1] is given as “cannot penetrate the blood/brain barrier”.

Take `O=c1[nH]c2ccccc2oc1=O` [Compound 2, 4,1-Benzoxazine;2,3-dione]: the 50% inhibitory concentration (IC50) in data set [2] (setting [5]) is 167 µM. In addition, the “potency relative to DCK (% of DCK)” value in data set [2] is reported as 1.5%. Regarding `COc1cc2ccccc2[nH]c1=O` [Compound 5, 3-Methoxy-2-quinolone], the “activity as antagonist for the glycine/NMDA receptor (in words)” value in data set [2] is “inactive”. `Oc1nc2ccccc2c(O)c1O` [Compound 11, 2,3,4-Trihydroxyquinoline]: the IC50 in data set [2] (setting [6]) came out at 60 µM. In addition, the “potency relative to DCK (% of DCK)” value in data set [2] was 4%. Turning to `O=C1Nc2ccccc2C(=O)C1=O` [Compound 12, Quinoline-2,3,4-trione], in data set [2] (setting [6]), the IC50 was 50 µM. Moreover, in data set [2], the “potency relative to DCK (% of DCK)” value came to 5%. `O=C1Nc2ccccc2C1=O` [Compound 13, Isatin]: the “activity as antagonist for the glycine/NMDA receptor (in words)” value in data set [2] was “not to be active”.

For `O=C1Nc2cc(Cl)cc(Cl)c2C1=O` [Compound 13d, 4,6-Dichloroisatin], the “activity as antagonist for the glycine/NMDA receptor (in words)” value in data set [2] is listed as “not to be active”. Take `O=C1Nc2cc(Cl)c([N+](=O)[O-])c(Cl)c2C1=O` [Compound 13e, 4,6-Dichloro-5(7)-nitroisatin]: the IC50 in data set [2] (setting [5]) stood at 96.5 µM. Moreover, the “potency relative to DCK (% of DCK)” value in data set [2] is reported as 3%. `O=c1[nH]c2ccccc2c(=O)o1` [Compound 14a, Isatoic anhydride]: in data set [2], the IC50 stood at 231 µM and the “potency relative to DCK (% of DCK)” value amounted to 1.1%. Consider `O=c1[nH]c2cc(Cl)c([N+](=O)[O-])c(Cl)c2c(=O)o1` [Compound 14d, 5,7-Dichloro-6(8)-nitroisatoic anhydride], for which, in data set [2], the “potency relative to DCK (% of DCK)” value worked out at 2.7%. As to `O=C(O)c1cc(=O)c2ccccc2o1` [Compound 19], in data set [2], the “activity as antagonist for the glycine/NMDA receptor (in words)” value is recorded as “only partially active”.

On to `O=C1Nc2cc(Cl)c(Cl)cc2NC1[N+](=O)[O-]` (stereo not shown) [Compound 33], for which, in data set [2] (unit μm [sic]), the Ki is 0.22 µM. On to `O=c1[nH]c2cc(Cl)c(Cl)cc2[nH]c1=NO` [Compound 37, 6,7-Dichloro-3-(hydroxyimino)-1,4-dihydroquinoxalin-2-one], for which the Ki in data set [2] was 0.3 µM. On to `O=C1C=CC(=O)Nc2ccccc2N1` [Compound 43, 1H-6H-1,6-Benzodiazocine-2,5-dione], for which, in data set [2], the “activity as antagonist for the glycine/NMDA receptor (in words)” value is “inactive”.

`O=C1CNC(=O)c2ccccc2N1` [Compound 73a, 2,3,5-trihydro-1H,4H-1,4-Benzodiazepine-2,5-dione]: in data set [2] (setting [5]), the half-inhibitory concentration (IC50) amounted to 300 µM. The “potency relative to DCK (% of DCK)” value in data set [2] is listed as 1.0%. Regarding `O=[N+]([O-])c1c(Br)c(Br)cc2nc(O)[nH]c12` [Example 50, 4-Nitro-5,6-dibromo-2-hydroxybenzimidazole], the “Potency relative to DCK (in words)” value in data set [2] (relative to DCK) was “inactive”.

In the case of `NC1CCN(O)C1=O` (stereo not shown) [HA-966], in data set [3], the “affinity for the glycine binding site (in words)” value is listed as “micromolar affinity” and the “type of activity at the glycine binding site (in words)” value is “partial agonist”. The blood/brain barrier penetration entry in data set [1] was “sufficiently penetrates the blood/brain barrier”.

Regarding `C[C@]12N[C@H](Cc3ccccc31)c1ccccc12` [MK-801], in data set [4], the dissociation constant (Kd) was around 0.003 µM.

`O=c1[nH]c2ccccc2[nH]c1=O` [QX, 1,4-dihydroquinoxaline-2,3-dione, reference compound]: the “potency relative to DCK (% of DCK)” value in data set [2] is 2%. Turning to `O=C(O)c1cc2ccccc2[nH]1` [indole-2-carboxylic acid], the blood/brain barrier penetration entry in data set [1] is reported as “cannot penetrate the blood/brain barrier”.
